Measured values published in patent US20140162974A1, “METHODS FOR MODULATION OF PHOSPHORUS AND FGF23” (Luitpold Pharmaceuticals, Inc., priority 2012, published 2014).
Entries after “also recorded” stand apart in the source; their conditions may differ.

What was measured:
Assay type in all cases: in vivo, human
[1] = test system: serum phosphate, urinary fractional excretion of phosphate; assay: Example 3 trial: serum and urinary phosphate; conditions: for mean urinary FEPi over time compared with baseline: by day 7 through day 35; for course of serum phosphate after day 1: through day 35
Protocol: (§1) Study visits were on Days 0 (when iron was infused), 1 (24 hours after iron infusion), 7, 14, and 35. The primary objectives were to determine the effect of iron deficiency on cFGF23 and iFGF23 levels and the effect of intravenous iron on iFGF23 and cFGF23 levels.
(§2) Randomization occurred centrally via a fax-based system. […] The complete dose was infused over 15 minutes on day 0. […] An initial test dose of 25 mg was administered slowly over 5 minutes.
(§3) Laboratory testing of blood and three-hour urine collections was performed at the screening visit and on study days 0 (when iron was infused), 1 (24 hours after iron infusion), 7, 14, and 35 (see e.g., FIG. 2A). Any subject who experienced a reduction in serum phosphate below the normal range after day 0 underwent additional phosphate measurements at 14 day intervals following day 35 until the level returned to the normal reference range. Safety evaluations of all subjects included ascertainment of adverse events, physical examinations at all study visits, and laboratory assessments. Any subject who withdrew from the study received a follow-up phone call to ascertain adverse events 30 days after they received study drug.
The pre-specified primary endpoints were changes in blood and urine markers of phosphate and bone metabolism among the evaluable population, defined as those subjects with baseline and at least one post-randomization set of FGF23 and blood and urinary phosphate levels. Secondary endpoints included the proportion of subjects achieving a hemoglobin increase […] anytime between baseline and day 35, and the change from baseline to highest hemoglobin, ferritin, and TSAT anytime during the 35-day study period. Additional safety endpoints included incidence, severity, and seriousness of adverse events, and incidence of treatment-emergent abnormal clinical laboratory values in the safety population, defined as all subjects who received the study drug regardless of subsequent laboratory testing.
(§4) Blood and urine samples were sent to a central laboratory for analysis (Covance Central Laboratory Service, Indianapolis, Ind.). Hemoglobin, blood counts, iron indices, electrolytes, and serum and urinary phosphate and creatinine were measured with standard, automated, multi-analyte techniques. Urinary fractional excretion of phosphate (FEPi) was calculated from the three-hour, morning urine collections as urinary phosphate x serum creatinine/serum phosphate x urinary creatinine. Serum levels of 25-hydroxyvitamin D and 1,25-dihydroxyvitamin D were measured in duplicate by radioimmunoassay (DiaSorin, Stillwater, Minn.) with intra-assay coefficients of variation (CV)<11.6%. Plasma C-terminal FGF23 (cFGF23) was measured in duplicate in EDTA-plasma samples using a human FGF23 immunometric assay capable of detecting both the intact peptide and its C-terminal fragments (Immutopics, San Clemente, Ca) with intra-assay CV≦3.8%. Because cFGF23 testing was performed in parallel with rolling enrollment and follow-up, all cFGF23 assay plates tested combinations of baseline and post-intervention samples from multiple study participants. Serum intact FGF23 (iFGF23) was measured in batches of baseline and post-intervention samples from multiple study participants at study end using an immunometric assay that detects the intact peptide exclusively (Kyowa Medex Company, Shizuoka, Japan) with intra-assay CV<2.7%. Serum hepcidin levels were measured on days 0, 7, and 35 using an enzyme-linked immunosorbent assay (Intrinsic LifeSciences, La Jolla, Calif.) with intra-assay CV≦19%. Urinary amino acids, glucose, albumin, and beta 2 microglobulin were measured to test for the possibility of global proximal tubular dysfunction. Urinary deoxypyridinoline cross link, and serum osteocalcin and bone-specific alkaline phosphatase were measured to assess bone turnover.
Baseline characteristics are presented as mean±standard error for continuous variables and as proportions for categorical variables. […]

intact FGF23 (iFGF23) = assay: Example 3 trial: serum intact FGF23; conditions: for effect on iFGF23 levels: by day 1 (24 hours); for Intact FGF23, Day 1 / Intact FGF23, Day 7 / Intact FGF23, Day 14 / Intact FGF23, Day 35: mean ± standard error, unit from the 3rd table
Protocol: as §1, §2, §3, §4
Baseline characteristics are presented as mean±standard error for continuous variables and as proportions for categorical variables. The association between iron indices and baseline and change in FGF23 levels was assessed with Spearman correlations. Restricted maximum likelihood-based repeated measures analyses (linear mixed models) that considered the effects of treatment, visit, and treatment x time interaction, with baseline values treated as a fixed covariate were used for the primary analyses of mean changes from baseline in continuous markers of phosphate homeostasis. The models employed unstructured covariance structures without imputing missing values. All outcome variables that were not normally distributed were analyzed after natural log-transformation. […]

FGF-23 C-Terminal = assay: VIT-23 study: plasma FGF-23 C-terminal assay
Protocol: Subjects with a hemoglobin (Hgb) that meets inclusion requirements and no exclusionary criteria will be offered participation in this 5-6 week study.
During the Treatment Phase, all subjects received a maximum dose of 1000 mg of IV iron. […] If no reaction occurred, the remainder of the dose (up to 15 mg/kg or 1000 mg including the test dose) was given as per Investigator. The infusion was given only when resuscitative techniques for the treatment of anaphylactic and anaphylactoid reactions were readily available.
Primary Endpoints included changes in blood and urine markers of phosphate and bone metabolism following IV iron administration. Blood markers include (all performed in morning after 10 hr fast): Serum Phosphate; Serum Potassium; Plasma Fibroblast growth factor 23 via 2nd generation Immutopics C-terminal assay; Serum Vitamin D; 1, 25 dihydroxy Vitamin D (1,25 [OH]2D); 25 hydroxy Vitamin D (250H-D); Serum Osteocalcin; Serum Bone-specific Alkaline phosphatase; Plasma intact Parathyroid hormone; Serum creatinine; Hepcidin; Reticulocyte count; Hemoglobin; Ferritin; Transferrin Saturation (TSAT); and Sample for archive. Urine markers (collected over a 3 hour period in the morning) (ratio of phosphate to creatinine determined to offset inter-patient variability in urine concentration) include: Phosphate; Creatinine; Calcium; Amino acids; Glucose; Albumin; Deoxypyridinoline cross link (Dpd)—a collagen type I cross link that indicates bone resorption; Beta-2-microglobulin; and Sample for archive.
All subjects had laboratory assessments at Screening, Day 0, Day 1 (24 hrs), Day 7, Day 14, and Day 35. Any subject with a change in phosphate value after Day 0 had additional phosphate measurements at 14 day intervals (following Day 35) until the level returned to normal (as defined by the laboratory reference range). Safety evaluation for all subjects included adverse events, physical examination, including vital signs, and laboratory assessments. Three hour urine collections was also performed on Day 0, Day 1 (24 hrs), Day 7, Day 14, and Day 35. Any subject who withdrew from the study will receive a follow up phone call 30 days after they received study drug.
The “baseline” was the value at Day 0 prior to administration of any study drug. The value of “n” for the baseline measurement may have be different at each study visit because the baseline values were assessed only for those individuals with data at the given visit.

Substance: iron dextran [reference compound]
- mean urinary FEPi over time compared with baseline [1]: no significant change over time
- mean urinary fractional excretion of phosphate (FEPi) on day 1 ([1]; in vivo): trended downwards
- serum phosphate within 24 hours after iron administration ([1]; in vivo): increased modestly
- course of serum phosphate after day 1 [1]: returned to near baseline levels by day 7 and remained stable for the remainder of the study
- Intact FGF23, Change from baseline (intact FGF23 (iFGF23); Day 1): −13.4%
- Intact FGF23, Change from baseline (intact FGF23 (iFGF23); Day 7): −4.4%
- Intact FGF23, Change from baseline (intact FGF23 (iFGF23); Day 14): −1.3%
- Intact FGF23, Change from baseline (intact FGF23 (iFGF23); Day 35): −9.3%
- effect on iFGF23 levels (intact FGF23 (iFGF23)): no significant changes; also recorded: but not iron dextran induced a significant increase
- Intact FGF23, Day 1 (intact FGF23 (iFGF23)): 24.6 ± 1.9 pg/mL
- Intact FGF23, Day 7 (intact FGF23 (iFGF23)): 27.5 ± 1.7 pg/mL
- Intact FGF23, Day 14 (intact FGF23 (iFGF23)): 28.4 ± 2.1 pg/mL
- Intact FGF23, Day 35 (intact FGF23 (iFGF23)): 28.3 ± 1.7 pg/mL
- FGF-23 C-Terminal, EDTApl-RUO, Visit, Mean (FGF-23 C-Terminal; Day 1): 151.60 RU/mL
- FGF-23 C-Terminal, EDTApl-RUO, Change to Visit, Mean (FGF-23 C-Terminal; Day 1 vs baseline): −716.03 RU/mL
- FGF-23 C-Terminal, EDTApl-RUO, Visit, Mean (FGF-23 C-Terminal; Day 7): 114.13 RU/mL
- FGF-23 C-Terminal, EDTApl-RUO, Change to Visit, Mean (FGF-23 C-Terminal; Day 7 vs baseline): −682.42 RU/mL
- FGF-23 C-Terminal, EDTApl-RUO, Visit, Mean (FGF-23 C-Terminal; Day 14): 107.39 RU/mL
- FGF-23 C-Terminal, EDTApl-RUO, Change to Visit, Mean (FGF-23 C-Terminal; Day 14 vs baseline): −733.96 RU/mL
- FGF-23 C-Terminal, EDTApl-RUO, Visit, Mean (FGF-23 C-Terminal; Day 35): 360.71 RU/mL
- FGF-23 C-Terminal, EDTApl-RUO, Change to Visit, Mean (FGF-23 C-Terminal; Day 35 vs baseline): −683.57 RU/mL
- FGF-23 C-Terminal, EDTApl-RUO, Visit, Mean (FGF-23 C-Terminal; Minimum post-baseline value): 94.00 RU/mL
- FGF-23 C-Terminal, EDTApl-RUO, Change to Visit, Mean (FGF-23 C-Terminal; Minimum value vs baseline): −732.67 RU/mL

Substance: polynuclear iron (III)-hydroxide 4(R)-(poly-(1→4)-O-α-glucopyranosyl)-oxy-2(R),3(S),5(R),6-tetrahydroxy-hexanoate [FCM]
- day of nadir in serum phosphate ([1]; FCM subjects stratified by serum phosphate<2.0 mg/dL): 14 days
- mean urinary FEPi over time compared with baseline [1]: increased significantly compared with baseline
- decrease in serum phosphate by day 7 ([1]; evaluable population): 0.6 mg/dL
- decrease in serum phosphate by day 14 ([1]; evaluable population): 0.7 mg/dL
- mean urinary fractional excretion of phosphate (FEPi) on day 1 ([1]; in vivo): trended downwards
- serum phosphate within 24 hours after iron administration ([1]; in vivo): increased modestly
- subjects in whom serum phosphate decreased to <2.0 mg/dL ([1]; in vivo): 10 subjects
- FEPi in FCM low phosphate subgroup vs the remaining ([1]; stratified analysis, peaked by day 14): increased to a significantly greater extent in the low phosphate subgroup
- course of serum phosphate after day 1 [1]: returning towards normal by day 35; also recorded: transient and asymptomatic reductions
- Intact FGF23, Change from baseline (intact FGF23 (iFGF23); Day 1): 128.0%
- Intact FGF23, Change from baseline (intact FGF23 (iFGF23); Day 7): 91.8%
- Intact FGF23, Change from baseline (intact FGF23 (iFGF23); Day 14): 59.1%
- Intact FGF23, Change from baseline (intact FGF23 (iFGF23); Day 35): 2.0%
- effect on iFGF23 levels (intact FGF23 (iFGF23)): increased significantly by day 1; also recorded: significant increase
- Intact FGF23, Day 1 (intact FGF23 (iFGF23)): 65.2 ± 8.0 pg/mL
- Intact FGF23, Day 7 (intact FGF23 (iFGF23)): 54.9 ± 18.0 pg/mL
- Intact FGF23, Day 14 (intact FGF23 (iFGF23)): 45.8 ± 6.9 pg/mL
- Intact FGF23, Day 35 (intact FGF23 (iFGF23)): 28.1 ± 2.9 pg/mL
- iFGF23 in FCM subjects who developed serum phosphate<2.0 mg/dL vs the remaining (intact FGF23 (iFGF23); stratified analysis): greater iFGF23 by day 1 that persisted through day 14
- FGF-23 C-Terminal, EDTApl-RUO, Visit, Mean (FGF-23 C-Terminal; Day 1): 176.80 RU/mL
- FGF-23 C-Terminal, EDTApl-RUO, Change to Visit, Mean (FGF-23 C-Terminal; Day 1 vs baseline): −648.30 RU/mL
- FGF-23 C-Terminal, EDTApl-RUO, Visit, Mean (FGF-23 C-Terminal; Day 7): 165.23 RU/mL
- FGF-23 C-Terminal, EDTApl-RUO, Change to Visit, Mean (FGF-23 C-Terminal; Day 7 vs baseline): −699.73 RU/mL
- FGF-23 C-Terminal, EDTApl-RUO, Visit, Mean (FGF-23 C-Terminal; Day 14): 170.12 RU/mL
- FGF-23 C-Terminal, EDTApl-RUO, Change to Visit, Mean (FGF-23 C-Terminal; Day 14 vs baseline): −584.59 RU/mL
- FGF-23 C-Terminal, EDTApl-RUO, Visit, Mean (FGF-23 C-Terminal; Day 35): 141.56 RU/mL
- FGF-23 C-Terminal, EDTApl-RUO, Change to Visit, Mean (FGF-23 C-Terminal; Day 35 vs baseline): −692.29 RU/mL
- FGF-23 C-Terminal, EDTApl-RUO, Visit, Mean (FGF-23 C-Terminal; Minimum post-baseline value): 98.73 RU/mL
- FGF-23 C-Terminal, EDTApl-RUO, Change to Visit, Mean (FGF-23 C-Terminal; Minimum value vs baseline): −684.57 RU/mL
